Results taken from PMC12812009, “Optimization of 4‐Amino‐2‐Pyridone Inhibitors of Proprotein Convertase Subtilisin/Kexin Type 9: Integrating Structure–Activity and Structure–Metabolism Relationships” (Chemmedchem, 2025).
Like-named read-outs stand apart in the source and are kept apart here. Values belong to the compound of their own block, whether it stands above or below them.

Key:
[1] = In vitro metabolic stability with mouse liver microsomes; type: in vitro ADME; conditions: for metabolic stability, percentage of intact compound recovered relative to control: MLM 1 mg/ml + NADPH-generating system, 10 µM, HPLC; for metabolic stability, percentage of intact compound recovered relative to control / metabolic stability (in words): 60 min; for metabolic stability (in words): MLM + NADPH-generating system
Description: All newly synthesized LSF derivatives of 5c were biologically evaluated to determine whether the introduced modifications influenced both metabolic stability and anti‐PCSK9 activity. Microsomal stability assays were conducted to assess the impact of LSF modifications on improving the stability of 5c. In these assays, LSF derivatives were incubated with mouse liver microsomes (MLM) and an NADPH‐generating system for 60 min, followed by HPLC analysis. Control samples included compounds and liver microsomes without the NADPH system, allowing for the assessment of nonspecific binding to microsomes. […] Acylated derivatives 12, 13, and 14 achieved stability levels exceeding 95%, as did the bicyclic derivative 7, which exemplifies a dual‐site functionalization.
MLM (pooled male) were obtained from Xenotech, LLC (Cambridge, Kansas City, USA). Glucose‐6‐phosphate (G6P), oxidized nicotinamide‐adenine‐dinucleotide phosphate (NADP^+), magnesium chloride (MgCl2), and glucose‐6‐phosphate‐dehydrogenase (G6PDH) were supplied by Sigma‐Aldrich (Milan, Italy). Metabolic stability assays were modified from Ferlenghi et al.^[ [33] ^] Briefly, samples were prepared in 100 mM phosphate buffered saline (PBS), pH 7.4, containing 1 mg ml^–1 MLM and a NADPH‐generating system (5 mM MgCl2, 10 mM glucose‐6‐phosphate, 2 mM NADP^+, 1.5 U ml^–1 of glucose‐6‐phosphate dehydrogenase). After incubation (37 °C, 5 min stirring), compounds stock solutions in DMSO were added to a final concentration of 10 µM. The final DMSO percentage in samples was kept at 0.5%. After 60 min, single aliquots of reaction mixture were withdrawn, added of two volumes of acetonitrile, centrifuged (10,000 g, 10 min) and the supernatant was analyzed by HPLC. The unspecific binding to MLM was evaluated by means of control samples in which the compounds were incubated in the absence of a NADPH generating system. The apparatus used for HPLC analysis was a Shimadzu instrument, with a reverse‐phase Nova‐Pak column (Waters) (C18 4 μm 3.9 × 150 mm, Waters). The mobile phase, pumped at a flow rate of 1.2 ml min^–1, consisted of water and acetonitrile in either a 50:50 (v/v) ratio (compounds 5c, 6a, 6b, 6c, 7, 8, 12, 13, 14, 17b) or a 40:60 (v/v) ratio (compounds 11 and 15) or a 30:70 (v/v) ratio (for compounds 17a, 18a, 18b). For compounds 9 and 10, a phosphate buffer (5.98 g L^–1 Na2HPO4, 0.19 g L^–1 KH2PO4, adjusted to pH 7.4 with 85% H3PO4 and supplemented with 1.4 mL L^–1 triethylamine; final pH: 8) and acetonitrile (50:50, v/v) were pumped at a flow rate of 2 mL min^–1. In all cases, column temperature was 35 °C, injection volume was 50 µl, and absorbance was monitored at 254 nm. Serial dilutions for the calibration curves were prepared in the interval 0.5–20 µM in either PBS:CH3CN or H2O:CH3CN mixture (50:50, v/v) for compounds 5c, 6a, 6b, 8, 9, 10, 11, 12, 13, 14, 15, 17a, 17b, 18a, 18b, and in acetonitrile for compounds 6c and 7.

secreted PCSK9 = assay: PCSK9 secretion in culture medium, ELISA on HepG2 supernatants; type: cell-based, human
Description: Next, the levels of secreted PCSK9 were quantified by ELISA assay (Figure 5) only on supernatants collected from cells treated with noncytotoxic concentrations of each compound, as reported in Table 1. Simvastatin (Simva) at 20 and 40 μM and berberine (BBR) at 10 μM were included as controls. As described in the literature, simvastatin induces PCSK9 expression as a compensatory mechanism in response to its cholesterol‐lowering effects, being a pharmacological competitor for HMG‐CoA reductase, the rate‐limiting enzyme of the cholesterol biosynthetic pathway.^[ [29] ^] In contrast, BBR, a natural compound, reduces the expression of PCSK9 levels through transcriptional inhibition, thus increasing the LDLR availability on plasma membrane.^[ [30] ^] As additional and distinct mechanism to the latter, BBR is also able to stabilize the transcript of LDLR, thus increasing its half‐life.^[ [31] ^] As expected, cells stimulated with simvastatin released more PCSK9 into the culture medium compared to unstimulated cells, with a statistically significant concentration‐dependent effect (+73% at 20 μM, p < 0.01; +200% at 40 μM, p < 0.0001), while BBR at 10 μM decreased PCSK9 levels in the medium more than 50% (p < 0.0001 vs. basal) (Figure 5).^[ [32] ^] The amount of PCSK9 secreted into the culture media was measured with an appropriate ELISA kit (R&D System, DY3888 and DY008B2) on the supernatants collected during the MTT assay. Every experimental condition was run in duplicate and the average PCSK9 secretion and standard deviation was calculated. A 4PL regression analysis was used to interpolate unknowns with the standard curve using GraphPad Prism v10.2, according to manufacturers’ instructions. The data were normalized onto the corresponding cell viability, and IC50 was then calculated using GraphPad Prism v10.2.

[2] = MTT cell viability assay in HepG2 cell cultures; type: cell-based, human; conditions: human, HepG2 cells, MTT
Description: (§1) The approach we set‐up to test the new PCSK9i was based on functional assay, which evaluated at the same time compounds cytotoxicity, and their effect on the secreted PCSK9 on the same cell line. First, cell viability was evaluated in HepG2 cell cultures using the MTT assay (CC50 values are reported in Table 1 and Figure 5 ) after 24 h of incubation in starving conditions (0.4% fetal bovine serum (FBS)). The low FBS concentration, and thus low extracellular lipoproteins, stimulates the sterol responsive element binding protein (SREBP) pathway, inducing the expression of LDLR, PCSK9, HMG‐CoA reductase,^[ [28] ^] thus increasing the uptake of exogenous cholesterol and enhancing the synthesis of endogenous cholesterol. This first step allowed us to calculate the CC50 and identify the noncytotoxic concentrations (viability higher than 90%; Table 1), then tested for PCSK9 inhibitory activity.
(§2) Cell viability was assessed using the MTT assay. Cells were seeded in 96‐well plates (2.5 × 10^4 cells/well) in MEM supplemented with 10% v/v FBS and incubated for 24 h. The cells were then treated with the synthesized compounds dissolved in DMSO at increasing concentrations (from 0.5 to 50 µM) in MEM supplemented with 0.4% v/v FBS for 24 h. Simvastatin [20 and 40 µM] and BBR [10 µM] (both from Merck, St. Louis, Missouri, USA) were used as internal controls as PCSK9 inducer and inhibitor, respectively.^[ [21] ^, [34] ^, [35] ^] The cells were then incubated for 2 h with a solution of MTT [1 mg mL^–1] in MEM supplemented with 0.4% v/v FBS, away from light sources. The supernatant was then collected and 200 µL of DMSO was added to each well to solubilize the newly formed formazan. Finally, an aliquot of 100 µL was taken to measure the absorbance at a wavelength of 570 nm using an absorbance microplate reader (Spark Tecan, Switzerland). Every experimental condition was run in duplicate and the average cell viability and standard deviation was calculated. Cell viability was expressed as the percentage of treated cells compared to untreated (basal) cells. CC50 values for each compound were calculated by interpolating the percentage of cell viability through nonlinear regression analysis of the log (inhibition) versus response using GraphPad Prism software version 8.0 (GraphPad Software Inc., La Jolla, CA).

HepG2 cell cultures = assay: MTT cell viability assay in HepG2 cell cultures; type: cell-based, human; conditions: 0.5-50.0 μM, HepG2, MTT, 24 h
Description: as §1, §2

[3] = HepG2, 24 h, non-cytotoxic concentrations
[4] = 24 h incubation, HepG2, 0.4% FBS, 0.5-50.0 μM, read-out: CC50 (CI 95%)
[5] = printed in Figures 5 and 8, HepG2, 24 h, read-out: CC50
[6] = Homo sapiens, HepG2, 24 h, read-out: secreted PCSK9 change vs. basal
[7] = Homo sapiens, HepG2, 24 h, ELISA on supernatants, normalized to viability, Figures 5 and 8 and text, read-out: IC50 (anti-PCSK9 activity, PCSK9 secretion)

metabolic stability, percentage of intact compound recovered relative to control [1]: exceeding 95%
Structure (SMILES): Cc1cc(N(Cc2ccc(C(F)(F)F)cc2)C(=O)CCl)cc(=O)n1Cc1ccc(C(F)(F)F)cc1 [Compound 14, 2‐Chloro‐N‐(6‐Methyl‐2‐Oxo‐1‐(4‐(Trifluoromethyl)Benzyl)‐1,2‐Dihydropyridin‐4‐yl)‐N‐(4‐(Trifluoromethyl)Benzyl)Acetamide]
effect on PCSK9 secretion (in words) (secreted PCSK9; [3]): a bit less effective than 8 at the highest concentration used
IC50 (secreted PCSK9; Homo sapiens, HepG2, Table S2, ELISA, non-cytotoxic concentrations, read-out: IC50 ± SD on PCSK9 secreted by HepG2): 6.4 ± 0.37 µM
CC50 at 24 h [2, 4]: 15 µM

Structure (SMILES): CC(=O)N(Cc1ccc(C(F)(F)F)cc1)c1cc(C)n(Cc2ccc(C(F)(F)F)cc2)c(=O)c1Br [Compound 15, N‐(3‐Bromo‐6‐Methyl‐2‐Oxo‐1‐(4‐(Trifluoromethyl)Benzyl)‐1,2‐Dihydropyridin‐4‐yl)‐N‐(4‐(Trifluoromethyl)Benzyl)Acetamide]
metabolic stability (in words) [1]: did not result in improved stability over the single‐site modifications in 12 or 6b
effect on PCSK9 secretion (in words) (secreted PCSK9; [3]): did not inhibit PCSK9 in a dose‐dependent manner
inhibition at 25 µM (secreted PCSK9; Homo sapiens, 25 μM, HepG2, 24 h, read-out: secreted PCSK9 change vs. basal): 80%
CC50 at 24 h [2, 5]: > 50 µM

Structure (SMILES): Cc1cc(OCc2ccc(C(F)(F)F)cc2)cc(=O)n1Cc1ccc(C(F)(F)F)cc1 [Compound 17a, 6‐Methyl‐1‐(4‐(Trifluoromethyl)Benzyl)‐4‐((4‐(Trifluoromethyl)Benzyl)Oxy)pyridin‐2(1H)‐One]
metabolic stability (in words) [1]: did not show improved metabolic stability compared to 5c
inhibition at 5 µM (secreted PCSK9; [6]): 58%
CC50 at 24 h [2, 4]: 22 µM

Structure (SMILES): Cc1cc(OCc2cccc(F)c2)cc(=O)n1Cc1ccc(Cl)cc1 [Compound 17b, 1‐(4‐Chlorobenzyl)‐4‐((3‐Fluorobenzyl)Oxy)‐6‐Methylpyridin‐2(1H)‐One]
metabolic stability (in words) [1]: did not show any improvement in metabolic stability compared to 5c
inhibition at 5 µM (secreted PCSK9; [6]): 82%
IC50 (secreted PCSK9; [7]): < 2.5 µM
CC50 at 24 h [2, 4]: 10 µM

metabolic stability, percentage of intact compound recovered relative to control [1]: exceeding 95%
Structure (SMILES): Cc1cc(OCc2ccc(C(F)(F)F)cc2)c(Cc2ccc(C(F)(F)F)cc2)c(=O)n1Cc1ccc(C(F)(F)F)cc1 [Compound 18a, 6‐Methyl‐1,3‐Bis(4‐(Trifluoromethyl)Benzyl)‐4‐((4‐(Trifluoromethyl)Benzyl)Oxy)pyridin‐2(1H)‐One]
metabolic stability/PCSK9 IC50 ratio (in words) ([1]; with respect to 5c): higher metabolic stability/PCSK9 IC50 ratio
inhibition at 50 µM (secreted PCSK9; [6]): 80%
IC50 (secreted PCSK9; [7]): 2.1 µM
CC50 at 24 h [2, 5]: > 50 µM
cytotoxicity (in words) (HepG2 cell cultures): nontoxic at all the concentrations tested

Structure (SMILES): Cc1cc(OCc2cccc(F)c2)c(Cc2cccc(F)c2)c(=O)n1Cc1ccc(Cl)cc1 [Compound 18b, 1‐(4‐Chlorobenzyl)‐3‐(3‐Fluorobenzyl)‐4‐((3‐Fluorobenzyl)Oxy)‐6‐Methylpyridin‐2(1H)‐One]
metabolic stability (in words) [1]: did not show any improvement in metabolic stability compared to 5c
inhibition at 50 µM (secreted PCSK9; [6]): 81%
IC50 (secreted PCSK9; [7]): 3.3 µM
CC50 at 24 h [2, 5]: > 50 µM
cytotoxicity (in words) (HepG2 cell cultures): nontoxic at all the concentrations tested
